Measured values from the Bradley open melting point set (2014).
Values joined by “and” are separate entries in the source; they are usually repeats but may differ in a detail not shown here. Equal values may be shown once.

Row | SMILES | melting point
1 | OCc1ccccc1Cl [2-chlorobenzyl alcohol] | 70 °C
2 | O=C1/C(=N/Nc2cccc([N+](=O)[O-])c2)C(C(F)(F)F)=NN1c1ccccc1 | 151 °C
3 | CC(C)(C)C(=O)Cl [trimethylacetyl chloride] | -57 °C
4 | Oc1c(Br)cc(Br)c2cccnc12 [5,7-dibromo-8-hydroxyquinoline] | 201 °C
5 | Nc1ccc(Br)cc1 [4-Bromoaniline] | 64 °C
6 | CCOC(=O)C(C=Cc1cccc(C=CC(C(=O)OCC)C(=O)OCC)c1)C(=O)OCC | 101 °C
7 | Cc1cccc(B(O)O)c1 [3-methylbenzeneboronic acid] | 161 °C
8 | COc1ccc([C@@H]2CC(=O)c3c(O)cc(O)cc3O2)cc1O [3',5,7-trihydroxy-4'-methoxyflavanone] | 230 °C
9 | O=C(O)c1cc(Br)ccc1O [5-bromosalicylic acid] | 168 °C
10 | ClC1C(Cl)C(Cl)C(Cl)C(Cl)C1Cl (stereo not given) [lindane] | 114 °C
11 | O=C(O)c1ccccc1-c1c2cc(Br)c(=O)c(Br)c-2oc2c(Br)c(O)c(Br)cc12 | 300 °C
12 | Brc1cccnc1 [3-bromopyridine] | -27 °C
13 | OC(c1ccc(Cl)cc1)(c1ccc(Cl)cc1)c1ccc(Cl)cc1 [4,4',4''-trichlorotrityl alcohol] | 96 °C
14 | COc1cccc(B(O)O)c1 [3-methoxybenzeneboronic acid] | 160 °C
15 | CC1(C)OC(C)(C(O)(Cc2ccccc2)Cc2ccccc2)CCC1C(=O)O (stereo not given) | 138 °C
16 | COC1(OC)CCC2(C)C3CCC4(C)CCCC4(O)C3CCC2(C)C1 (stereo not given) [3,3-dimethoxy-5-methylandrostan-14-ol] | 147 °C
17 | ClCc1ccccc1Cl [2-chlorobenzyl chloride] | -13 °C
18 | C=C1N(C(C)=O)c2ccccc2C1(C)C(=O)OC (stereo not given) | 60 °C
19 | CCOC(=O)/C=C/c1ccccc1 [Ethyl (2E)-3-phenylacrylate] | 7 °C
20 | O=C(NC(CO)C(=O)O)OCc1ccccc1 (stereo not given) [N-carbobenzoxy-serine] | 111 °C
21 | OCc1ccccc1O[C@@H]1O[C@H](CO)[C@@H](O)[C@H](O)[C@H]1O [D-salicin] | 199 °C
22 | Clc1cccc(Cl)c1Cl [1,2,3-trichlorobenzene] | 55 °C and 53 °C (2×)
23 | O=C5\C=C4/C(C3CCC2(C(CCC2OC(=O)c1ccccc1)C3CC4)C)(C)CC5 (stereo not given) [testosterone benzoate] | 195 °C

Row | SMILES | melting point
24 | CCN(C)C [N,N-Dimethylethanamine] | -140 °C
25 | CCCCCCCCOc1cc(N(NC(=O)OC(C)(C)C)C(=O)OC(C)(C)C)cc(OCCCCCCCC)c1OCCCCCCCC | 73.5 °C
26 | CC(=O)Nc1ccccc1/C=C/c1ccccc1 [N-{2-[(E)-2-phenylethenyl]phenyl}acetamide] | 113 °C
27 | O=C(O)c1ccc(C(F)(F)F)cc1F [2-fluoro-4-(trifluoromethyl)benzoic acid] | 168 °C
28 | CC(=O)O[C@H]1O[C@@H](COC(=O)c2ccccc2)[C@H](OC(=O)c2ccccc2)[C@@H]1OC(=O)c1ccccc1 [1-o-acetyl-2,3,5-tri-o-benzoyl-beta-D-ribofuranose] | 129 °C
29 | CCC1(C2=CCCCCC2)C(=O)NC(=O)NC1=O [heptabarbital] | 175 °C
30 | OCCN(CCO)CCO [triethanolamine] | 20 °C
31 | CCCCCCC(C)C [2-Methyloctane] | -80 °C
32 | O=C(O)Cc1ccc(Cl)cc1 [4-chlorophenylacetic acid] | 106 °C
33 | COc1cc(C(C)=O)ccc1O [4'-hydroxy-3'-methoxyacetophenone] | 114 °C
34 | OCC(CO)(CO)CO [Pentaerythritol] | 260 °C
35 | Cl/C=C\Cl [(Z)-1,2-Dichloroethene] | -80 °C
36 | Nc1ccccc1CCc1ccccc1N [2,2'-Ethane-1,2-diyldianiline] | 33 °C
37 | CC(C)(C)C(=O)Nc1ccccc1B(O)O [2-(2,2,2-trimethylacetamido)benzeneboronic acid] | 270 °C
38 | CCCCCCCCCCCCC(=O)O [N-Tridecanoic Acid] | 44.5 °C
39 | COc1cccc(C)c1C [2,3-dimethylanisole] | 29 °C
40 | Cc1c(C2(c3cc(Br)c(O)c(Br)c3C)OS(=O)(=O)c3ccccc32)cc(Br)c(O)c1Br | 225 °C
41 | O=C(O)c1ccc2ccccc2c1 [2-naphthoic acid] | 184 °C
42 | N#Cc1ccc(O)cc1 [4-hydroxybenzonitrile] | 112 °C
43 | OB(O)c1ccc(Cl)cc1Cl [2,4-dichlorobenzeneboronic acid] | 244 °C
44 | CCOC(C)OCC [acetaldehyde diethyl acetal] | -100 °C
45 | CC(=O)C1=C2C=CCC=C2N=C1 [3-Acetylindole] | 194 °C
46 | O=C(O)CCCC[C@@H]1SC[C@@H]2NC(=O)N[C@@H]21 [Biotin] | 232 °C

Row | SMILES | melting point
47 | CC(C)c1ncc([N+](=O)[O-])n1C [Ipronidazole] | 61 °C
48 | COc1ccc(C#N)cc1 [4-methoxybenzonitrile] | 59 °C
49 | CCN(CC)c1ccccc1 [N,N-diethylaniline] | -38 °C
50 | O=C(O)C(=Cc1ccccc1)Cc1ccccc1 [2-benzyl-3-phenylacrylic acid] | 158 °C
51 | CC1(C)OC(=O)CC(=O)O1 [Meldrum's Acid] | 98 °C
52 | O=[N+]([O-])c1ccccc1C=NO [2-nitrobenzaldoxime] | 100 °C
53 | Oc1ccccc1I [2-Iodophenol] | 38.5 °C
54 | Brc1ccc(Oc2ccc(Br)cc2)cc1 [bis-p-bromophenyl_ether] | 60 °C
55 | Cc1cc(C)c(C)c(Br)c1C [1-bromo-2,3,5,6-tetramethylbenzene] | 60 °C
56 | CC(C)(C)c1cnc(C(=O)Nc2cccc(Br)c2)cn1 [N-(3-bromophenyl)-5-tert-butylpyrazine-2-carboxamide] | 114 °C
57 | ClCCOCCCl [bis(2-chloroethyl) ether] | -50 °C
58 | O=C1CCCc2cc3c(c(-c4ccccc4)c21)-c1cc(Cl)ccc1OC3 | 185 °C
59 | Cc1ccc(S(=O)(=O)NC2CCCCC2)cc1 [N-Cyclohexyl-4-methylbenzenesulfonamide] | 84.5 °C
60 | CCCCCCCCSc1cc(N(NC(=O)OC(C)(C)C)C(=O)OC(C)(C)C)cc(SCCCCCCCC)c1SCCCCCCCC | 51.5 °C
61 | O=C(CO)CO [1,3-Dihydroxyacetone] | 75 °C
62 | O=C(O)c1ccccc1OP(=O)(O)O [2-carboxyphenyl phosphate] | 164 °C
63 | Cc1cc(CO)c(O)c(CO)c1 [2,6-bis(hydroxymethyl)-p-cresol] | 123 °C
64 | CC(C)(C)c1ccc2c(c1)OCCOCCOc1cc(C(C)(C)C)ccc1OCCOCCO2 [4',4''(5'')-di-tert-butyldibenzo-18-crown-6] | 110 °C
65 | O=C(O)c1cc(I)cc(I)c1I [2,3,5-triiodobenzoic acid] | 221 °C
66 | CC1(C)[C@H]2CC[C@]1(C)C(=O)C2 [(1S)-camphor] | 178 °C
67 | O=C1CS/C(=N\c2ccccc2)N1c1ccccc1 [OSM-S-47] | 176 °C
68 | O=[N+]([O-])c1ccc(CO)cc1 [4-nitrobenzyl alcohol] | 94 °C

Now from value to compound:

Row | melting point | SMILES
69 | -62 °C | COC(=O)CC(=O)OC [dimethyl malonate]
70 | 174 °C | CC12CCC(CC1=O)C2(C)C (stereo not given) [camphor]
71 | 120 °C | CN(C)CCC(O)(c1ccccc1)c1ccccc1Cl (stereo not given) [chlophedianol]
72 | 272 °C and 274 °C | Cn1c(=O)c2[nH]cnc2n(C)c1=O [theophylline]
73 | 129 °C | CCCCNC(=O)NS(=O)(=O)c1ccc(C)cc1 [tolbutamide]
74 | 142 °C | COC(=O)c1ccc(C(=O)OC)cc1 [dimethyl terephthalate]
75 | 114 °C | CN(C)C(=S)Sc1ccc2ccccc2c1 [naphthalen-2-yl dimethyldithiocarbamate]
76 | 54 °C | O=C1C=CC(=O)O1 [maleic anhydride]
77 | 111 °C | CC(=O)OC[C@H]1O[C@H](OC(C)=O)[C@H](OC(C)=O)[C@@H](OC(C)=O)[C@@H]1OC(C)=O [alpha-D-glucose pentaacetate]
78 | 230 °C | O=C(O)c1ccccc1C(=O)O [phthalic acid]
79 | 57 °C | Cc1cccc(OCC(O)CNC(C)(C)C)c1C (stereo not given) [xibenolol]
80 | 119 °C | CC=C1CCC2C3CCC4CC(OC(C)=O)CCC4(C)C3CCC12C (stereo not given) [pregn-17-en-3-yl acetate]
81 | 51 °C | COC(=O)c1ccc(CO)cc1 [methyl_4-hydroxymethylbenzoate]
82 | 87 °C | CC(C)(C)OC(=O)N[C@@H](Cc1ccccc1)C(=O)O [boc-phenylalanine]
83 | -6 °C | CCCCCCC(=O)O [heptanoic_acid]
84 | -51 °C | CC(=O)OCc1ccccc1 [benzyl acetate]

Row | melting point | SMILES
85 | 200 °C | COc1ccccc1P(c1ccccc1OC)c1ccccc1OC [tris(2-methoxyphenyl)phosphine]
86 | 201 °C | COc1cc(Cc2cnc(N)nc2N)cc(OC)c1OC [trimethoprim]
87 | 25 °C | Nc1cccc(I)c1 [m-iodoaniline]
88 | 65 °C | COC(=O)c1sccc1N [methyl 3-aminothiophene-2-carboxylate]
89 | 179 °C | OB(O)c1ccccc1-c1ccccc1 [biphenyl-2-boronic acid]
90 | 86 °C | CCB(O)O [ethylboronic acid]
91 | 183 °C | Nc1cccc(-n2ccccc2=O)c1 [amphenidone]
92 | 163 °C | Cc1ccc(C(N)=O)cc1 [p-toluamide]
93 | 116 °C | CS(=O)(=O)OCCCCOS(C)(=O)=O [busulfan]
94 | -138 °C | CC/C=C\CC [cis-3-hexene]
95 | -61 °C | C=C1CCC2CC1C2(C)C (stereo not given) [b-pinene]
96 | 133 °C | O=C(O)CCCCCCCCC(=O)O [sebacic acid]
97 | 96 °C | CCCOC(=O)c1ccc(O)cc1 [propyl 4-hydroxybenzoate]
98 | -183 °C | C [methane]
99 | 34 °C | OC/C=C/c1ccccc1 [cinnamyl alcohol]
100 | 186 °C | NC(Cc1ccccc1)C(=O)O (stereo not given) [phenylalanine]
